Assay results: US20090032427A1, “Receptacles and Kits, Such as for Dry Powder Packaging” (Nektar Therapeutics, priority 2005, published 2009)

Columns and labels:
[1] = cited from earlier work
[2] = amphotericin B lung-residence half-life (bronchioalveolar lavage / lung tissue homogenization); format: in vivo; conditions: pulmonary administration
fungus = assay: minimum inhibitory concentration (MIC) of amphotericin B; format: cell-based; conditions: midrange of the MIC range, 300′ of FIG. 25
Description: In one version, an aerosolizeable pharmaceutical composition comprising amphotericin B is administered to the lungs and/or nasal cavity of a patient in a manner that results in an amphotericin B concentration greater than a minimum inhibitory concentration (MIC) of the fungus. The MIC is defined as the lowest concentration of amphotericin B that inhibits fungal growth. The MIC may be expressed as a particular concentration value or as a range of concentrations. A method according to one or more embodiments of the present invention administers a sufficient amount of the pharmaceutical composition to achieve a target lung concentration of amphotericin B that falls within the range of MIC values or is above a particular MIC value. In another version, the target lung concentration of amphotericin B exceeds the MIC range. In another version, the target lung concentration of amphotericin B exceeds the lowest value in an MIC range. […] As used herein, unless otherwise specified, the MIC value shall be taken to be the particular value when a particular MIC value is determined and shall be taken to be a midrange value when a range of MIC values is determined. […]
The MIC value for amphotericin B in this version has been determined to range from about 0.5 μg/g to about 4 μg/g, as shown by block 300. […]

SMILES: CCCCCCCCCCCCCCCC(=O)OC[C@H](COP(=O)([O-])OCC[N+](C)(C)C)OC(=O)CCCCCCCCCCCCCCC [DPPC, dipalmitoylphosphatidylcholine]
- solubility in water [1]: about 10^−10 mol/L

SMILES: C[C@@H]1[C@H](O)[C@@H](C)/C=C/C=C/C=C/C=C/C=C/C=C/C=C/[C@H](O[C@@H]2O[C@H](C)[C@@H](O)[C@H](N)[C@@H]2O)C[C@@H]2O[C@](O)(C[C@@H](O)C[C@@H](O)[C@H](O)CC[C@@H](O)C[C@@H](O)CC(=O)O[C@H]1C)C[C@H](O)[C@H]2C(=O)O [amphotericin B]
- amphotericin B lung-residence half-life in lung epithelial fluid ([2]; lung epithelial fluid, measured by bronchioalveolar lavage): at least 10 hours
- amphotericin B lung-residence half-life in lung tissue ([2]; lung tissue, measured by lung tissue homogenization): at least 1 week
- midrange MIC value (fungus): about 2.25 μg/g
